From EP0275515B1, “Aqueous pharmaceutical composition” (DAIICHI PHARMACEUTICAL CO., LTD., priority 1986, dated 1988) come the findings set out here.

Data set [1] in a line: Storage stability of aqueous solution (residual concentration). Type of data set: physicochemical. The settings on record: 0.5 w/v% aqueous solution, pH range of 3 to 10, stored at 60°C for 1 or 2 weeks.
Data set [2] in a line: Acute toxicity in mice (intravenous LD50). The settings on record: mouse, in vivo, read-out: acute toxicity (LD₅₀, intravenous). As for the experimental part:
It is to be noted that the acute toxicity of the S-compound in mice (LD₅₀, intravenous) is 244 mg/kg.

Take `C[C@H]1COc2c(N3CCN(C)CC3)c(F)cc3c(=O)c(C(=O)O)cn1c23` [S-compound, S-(-)-9-fluoro-3-methyl-10-(4-methyl-1-piperazinyl)-7-oxo-2,3-dihydro-7H-pyrido[1,2,3-de][1,4]benzoxazine-6-carboxylic acid]: the residual concentrations entry in data set [1] is listed as “stably remained without decomposition”. Besides, the LD50 in data set [2] came to 244 mg/kg.
